From ChEMBL document CHEMBL1129817, “Novel water-soluble analogues retaining potent antitumor activity of RA-VII, a cyclic hexapeptide from Rubia plants” (Bioorg Med Chem Lett, 1997)
In brackets after ≈: the same amount, converted by molar mass.

Columns and labels:
P388 [1] = test: Percentage of the median survival time of P388 leukemic mice (T) at intraperitoneal administration of 0.4 mg/kg dose to that of controls (C); format: functional, Mus musculus
P388 [2] = test: Percentage of the median survival time of P388 leukemic mice (T) at intraperitoneal administration of 1.6 mg/kg dose to that of controls (C); format: functional, Mus musculus
P388 [3] = test: Percentage of the median survival time of P388 leukemic mice (T) at intraperitoneal administration of 6.25 mg/kg dose to that of controls (C); format: functional, Mus musculus
KB = test: Compound was evaluated for cytotoxicity against human epidermoid carcinoma of nasopharynx (KB) cells; format: functional, cell-based
[4] = test system: KATO III stomach cancer cell line; test: Compound was evaluated for cytotoxicity against KATO-III gastric carcinoma cells; format: functional, cell-based; settings: Homo sapiens
L1210 = test: Compound was evaluated for cytotoxicity against L1210 leukemia cells; format: functional, cell-based; settings: Mus musculus

| Compound | T/C (P388 [1]) [%] | T/C (P388 [2]) [%] | T/C (P388 [3]) [%] | IC50 (KB) [ng/mL] | also measured |
| --- | --- | --- | --- | --- | --- |
| COc1ccc(C[C@H]2C(=O)N[C@@H](C)C(=O)N(C)[C@H]3Cc4cccc(c4)Oc4cc(ccc4OCCN4CCCC4)C[C@@H](C(=O)N[C@H](C)C(=O)N[C@@H](C)C(=O)N2C)N(C)C3=O)cc1 | 112 | 124 | 134 | – | – |
| CCN(CCOc1ccc2cc1Oc1cccc(c1)C[C@H]1C(=O)N(C)[C@@H](C2)C(=O)N[C@H](C)C(=O)N[C@@H](C)C(=O)N(C)[C@@H](Cc2ccc(OC)cc2)C(=O)N[C@@H](C)C(=O)N1C)c1ccccc1 [listing 1 of 2 here] | 116 | 133 | 150 | – | – |
| COc1ccc(C[C@H]2C(=O)N[C@@H](C)C(=O)N(C)[C@H]3Cc4cccc(c4)Oc4cc(ccc4OCCN(Cc4ccccc4)Cc4ccccc4)C[C@@H](C(=O)N[C@H](C)C(=O)N[C@@H](C)C(=O)N2C)N(C)C3=O)cc1 [listing 1 of 2 here] | – | – | – | 59 (≈ 60.2 nM) | – |
| COc1ccc(C[C@H]2C(=O)N[C@@H](C)C(=O)N(C)[C@H]3Cc4cccc(c4)Oc4cc(ccc4OCCN4CCCCC4)C[C@@H](C(=O)N[C@H](C)C(=O)N[C@@H](C)C(=O)N2C)N(C)C3=O)cc1 | 115 | 123 | 127 | – | – |
| COc1ccc(C[C@H]2C(=O)N[C@@H](C)C(=O)N(C)[C@H]3Cc4cccc(c4)Oc4cc(ccc4OCCN4CCCCCC4)C[C@@H](C(=O)N[C@H](C)C(=O)N[C@@H](C)C(=O)N2C)N(C)C3=O)cc1 | – | – | – | 7.6 (≈ 8.62 nM) | – |
| COc1ccc(C[C@H]2C(=O)N[C@@H](C)C(=O)N(C)[C@H]3Cc4cccc(c4)Oc4cc(ccc4OCCN(C(C)C)C(C)C)C[C@@H](C(=O)N[C@H](C)C(=O)N[C@@H](C)C(=O)N2C)N(C)C3=O)cc1 | – | – | – | 4.6 (≈ 5.2 nM) | IC50 [4]: 1.5 ng/mL (≈ 1.7 nM); IC50 (L1210): 4.5 ng/mL (≈ 5.09 nM) |
| COc1ccc(C[C@H]2C(=O)N[C@@H](C)C(=O)N(C)[C@H]3Cc4cccc(c4)Oc4cc(ccc4OCCN(Cc4ccccc4)Cc4ccccc4)C[C@@H](C(=O)N[C@H](C)C(=O)N[C@@H](C)C(=O)N2C)N(C)C3=O)cc1 [listing 2 of 2 here] | – | – | – | – | Activity (P388 [1]): 105%; Activity (P388 [2]): 119%; Activity (P388 [3]): 134% |
| CCN(CCOc1ccc2cc1Oc1cccc(c1)C[C@H]1C(=O)N(C)[C@@H](C2)C(=O)N[C@H](C)C(=O)N[C@@H](C)C(=O)N(C)[C@@H](Cc2ccc(OC)cc2)C(=O)N[C@@H](C)C(=O)N1C)c1ccccc1 [listing 2 of 2 here] | – | – | – | 9.9 (≈ 11 nM) | – |
| CCN(CC)CCOc1ccc2cc1Oc1cccc(c1)C[C@H]1C(=O)N(C)[C@@H](C2)C(=O)N[C@H](C)C(=O)N[C@@H](C)C(=O)N(C)[C@@H](Cc2ccc(OC)cc2)C(=O)N[C@@H](C)C(=O)N1C | 116 | 124 | 136 | – | – |
